Assay results from patent US10653717B2, “Antibiotic compositions” (priority 2016, dated 2020).

Assays:
[1] = tested on: KP-2: K. pneumonia subsp. pneumonia 0322#; test: MIC of silver with antibiotics on clinical isolated MDR Gram-negative bacteria; assay type: cell-based, Klebsiella pneumonia; conditions: antibiotic 4 μM
Experimental: (§1) There are five clinically most difficult-to-treat MDR Gram-negative pathogen species: Klebsiella pneumonia, Acinetobacter baumannii, Pseudomonas aeruginosa, Enterobacter cloacae and Escherichia coli. One strain from each species was isolated, and overnight cultures were diluted 1:1000 times in LB medium, and treated with serial concentrations of Ag^+ and antibiotics in combinations for 24 h (Table 10).
(§2) Five clinical isolated MDR Gram-negative strains were grown until an OD600 nm of 0.4, and were diluted 1:1,000 into 100 μl LB medium in 96 micro-well plates. […] The cultures treated with the same serial dilutions of 100 μl ebselen and silver nitrate were used as the positive control.

[2] = tested on: ECL-2: E. cloacae 2301#; test: as above; assay type: cell-based, Enterobacter cloacae; conditions: antibiotic 4 μM
Experimental: as §1, §2

[3] = tested on: PA-1: Pseudomonas aeruginosa 1298#; test: as above; assay type: cell-based; conditions: antibiotic 4 μM
Experimental: as §1, §2

[4] = tested on: ECO-1: Escherichia coli 1139#; test: as above; assay type: cell-based; conditions: antibiotic 4 μM
Experimental: as §1, §2

[5] = tested on: AB-1: Acinetobacter baumannii H#; test: as above; assay type: cell-based; conditions: antibiotic 4 μM
Experimental: as §1, §2

[6] = tested on: PA-2: P. aeruginose 0009#; test: Drug sensitivity of clinical isolated strain; assay type: cell-based, Pseudomonas aeruginosa; conditions: PA-2 (Table 3); note: key: R: resistant; S: sensitive
[7] = tested on: ECO-3: E. coli ZY-1; test: Drug sensitivity of clinical isolated strain; assay type: cell-based, Escherichia coli; note: key: R: resistant; S: sensitive
[8] = tested on: ECL-2: E. cloacae 2301#; test: Drug sensitivity of clinical isolated strain; assay type: cell-based, Enterobacter cloacae; note: key: R: resistant; S: sensitive
[9] = tested on: PA-1: Pseudomonas aeruginose 1298#; test: Drug sensitivity of clinical isolated strain; assay type: cell-based, Pseudomonas aeruginosa; note: key: R: resistant; S: sensitive
[10] = tested on: KP-1: Klebsiella pneumonia subsp. pneumonia 13#; test: Drug sensitivity of clinical isolated strain; assay type: cell-based; conditions: KP-1 (Table 3); note: key: R: resistant; S: sensitive
[11] = tested on: ECO-1: Escherichia coli 1139#; test: Drug sensitivity of clinical isolated strain; assay type: cell-based; note: key: R: resistant; S: sensitive
[12] = tested on: GSH; test: GSH amount in treated E. coli cell extracts, GR-coupled DTNB reduction; assay type: cell-based, Escherichia coli; conditions: 5 μM Ag^+ and 80 μM antibiotic; 10 min; compared with antibiotics themselves
[13] = tested on: wild type E. coli DHB4; test: MIC of nine antibiotics and silver in combinations on E. coli DHB4; assay type: cell-based, Escherichia coli; conditions: 24 h
Experimental: E. coli DHB4 overnight cultures were diluted 1:1000 times in Luria Bertani (LB) medium, and treated with serial dilutions of ionic silver (Ag^+) as a nitrate salt and 9 antibiotics in combinations, separately, for 24 h.
E. coli DHB4 from frozen stock were grown overnight at 37° C., 400 rpm. The overnight culture was diluted 1:100 with 5 ml of LB medium in 15 ml tubes and incubated at 37° C. at 400 rpm. Cells were grown until an OD600 nm of 0.4 and were used for antibiotic treatment. Briefly, cells were diluted 1:1,000 into 100 μl of LB medium in 96 micro-well plates. […] The minimum inhibition concentration (MIC) was determined as the lowest concentration of drugs that inhibited 90% of growth compared to the untreated cells after 24 h culture at 37° C. The cultures treated with the same serial dilutions of 100 μl ebselen and silver nitrate were used as the positive control.

[14] = tested on: KP-2: K. pneumonia subsp. pneumonia 0322#; test: Drug sensitivity of clinical isolated strain; assay type: cell-based, Klebsiella pneumonia; note: key: R: resistant; S: sensitive
[15] = tested on: ECO-2: E. coli 2219#; test: Drug sensitivity of clinical isolated strain; assay type: cell-based, Escherichia coli; conditions: ECO-2 (Table 3); note: key: R: resistant; S: sensitive
[16] = tested on: E. coli; test: Degree of synergy, Bliss Independence Model; assay type: cell-based, Escherichia coli; conditions: 5 μM AgNO3 with 80 μM antibiotic; 1 and 4 h
[17] = tested on: AB-1: Acinetobacter baumannii H#; test: Drug sensitivity of clinical isolated strain; assay type: cell-based; note: key: R: resistant; S: sensitive
[18] = tested on: AB-2: A. baumannii 0361#; test: Drug sensitivity of clinical isolated strain; assay type: cell-based, Acinetobacter baumannii; conditions: AB-2 (Table 3); note: key: R: resistant; S: sensitive
[19] = tested on: ECL-1: Enterobacter cloacae 0431#; test: Drug sensitivity of clinical isolated strain; assay type: cell-based; conditions: ECL-1 (Table 3); note: key: R: resistant; S: sensitive

Molecule: CN[C@@H]1[C@@H](O)[C@@H](O[C@@H]2[C@@H](O)[C@H](O[C@H]3O[C@H]([C@@H](C)O)[C@@H](O)[C@H](O)[C@H]3N)[C@@H](N)C[C@H]2N)OC[C@]1(C)O [Geneticin]
- MIC of silver in the presence of different antibiotics [1]: 160 µM
- MIC of silver in the presence of different antibiotics [2]: 160 µM
- MIC of silver in the presence of different antibiotics [3]: 80 µM
- MIC of silver in the presence of different antibiotics [4]: 40 µM
- MIC of silver in the presence of different antibiotics [5]: 80 µM

Molecule: Gentamicin
- MIC of silver in the presence of different antibiotics [1]: 160 µM
- Drug sensitivity [6]: R
- Drug sensitivity ([7]; E. coli ZY-1 (Table 7)): S
- Drug sensitivity ([7]; ECO-3 (Table 3)): S
- Drug sensitivity ([8]; ECL-2 (Table 3)): R
- Drug sensitivity ([8]; ECL-2 (table of Example 3)): R
- Drug sensitivity ([9]; PA-1 (Table 3)): S
- Drug sensitivity ([9]; PA-1 (table of Example 3)): S
- Drug sensitivity [10]: R
- Drug sensitivity ([11]; ECO-1 (Table 3)): S
- Drug sensitivity ([11]; ECO-1 (table of Example 3)): S
- MIC of silver in the presence of different antibiotics [2]: 160 µM
- MIC of silver in the presence of different antibiotics [3]: 40 µM
- MIC of silver in the presence of different antibiotics [4]: 40 µM
- MIC of silver in the presence of different antibiotics [5]: 80 µM
- total GSH amount in cell extracts [12]: slightly deplete
- Antibacterial effect as MIC of antibiotic and silver ([13]; listed as head Silver (μM) 0): 40 µM
- Antibacterial effect as MIC of antibiotic and silver ([13]; listed as head Silver (μM) 1): 20 µM
- Antibacterial effect as MIC of antibiotic and silver ([13]; listed as head Silver (μM) 2): 2.5 µM
- Antibacterial effect as MIC of antibiotic and silver ([13]; listed as head Silver (μM) 4): 1.25 µM
- activity with silver on E. coli DHB4 growth ([13]; serial dilutions of Ag^+ and antibiotic): synergistic activity
- Drug sensitivity ([14]; KP-2 (Table 3)): R
- Drug sensitivity ([14]; KP-2 (table of Example 3)): R
- Drug sensitivity [15]: R
- degree of synergy with Ag^+ (Bliss model) [16]: synergistic combinations
- Drug sensitivity ([17]; AB-1 (Table 3)): R
- Drug sensitivity ([17]; AB-1 (table of Example 3)): R
- Drug sensitivity [18]: R
- Drug sensitivity [19]: R

Molecule: NC[C@H]1O[C@H](O[C@H]2[C@H](O)[C@@H](O[C@H]3O[C@H](CO)[C@@H](O)[C@H](N)[C@H]3O)[C@H](N)C[C@@H]2N)[C@H](O)[C@@H](O)[C@@H]1O [Kanamycin]
- MIC of silver in the presence of different antibiotics [1]: 160 µM
- MIC of silver in the presence of different antibiotics [2]: 160 µM
- MIC of silver in the presence of different antibiotics [3]: 80 µM
- MIC of silver in the presence of different antibiotics [4]: 40 µM
- MIC of silver in the presence of different antibiotics [5]: 80 µM

Molecule: CN(C)[C@@H]1C(O)=C(C(N)=O)C(=O)[C@@]2(O)C(O)=C3C(=O)c4c(O)cccc4[C@@](C)(O)[C@H]3C[C@@H]12 [Tetracycline]
- Drug sensitivity [6]: R
- Drug sensitivity ([7]; E. coli ZY-1 (Table 7)): R
- Drug sensitivity ([7]; ECO-3 (Table 3)): S
- Drug sensitivity ([8]; ECL-2 (Table 3)): R
- Drug sensitivity ([8]; ECL-2 (table of Example 3)): R
- Drug sensitivity ([9]; PA-1 (Table 3)): R
- Drug sensitivity ([9]; PA-1 (table of Example 3)): R
- Drug sensitivity ([11]; ECO-1 (Table 3)): R
- Drug sensitivity ([11]; ECO-1 (table of Example 3)): R
- MIC of silver in the presence of different antibiotics [3]: 80 µM
- MIC of silver in the presence of different antibiotics [4]: 80 µM
- MIC of silver in the presence of different antibiotics [5]: 80 µM
- Drug sensitivity [15]: S
- Drug sensitivity ([17]; AB-1 (Table 3)): R
- Drug sensitivity ([17]; AB-1 (table of Example 3)): R
- Drug sensitivity [18]: R
- Drug sensitivity [19]: R

Molecule: CO/N=C(\C(=O)N[C@@H]1C(=O)N2C(C(=O)O)=C(COC(C)=O)CS[C@H]12)c1csc(N)n1 [Cefotaxime]
- Drug sensitivity [6]: R
- Drug sensitivity ([7]; E. coli ZY-1 (Table 7)): S
- Drug sensitivity ([7]; ECO-3 (Table 3)): S
- Drug sensitivity ([8]; ECL-2 (Table 3)): R
- Drug sensitivity ([8]; ECL-2 (table of Example 3)): R
- Drug sensitivity ([9]; PA-1 (Table 3)): R
- Drug sensitivity ([9]; PA-1 (table of Example 3)): R
- Drug sensitivity [10]: R
- Drug sensitivity ([11]; ECO-1 (Table 3)): R
- Drug sensitivity ([11]; ECO-1 (table of Example 3)): R
- Drug sensitivity ([14]; KP-2 (Table 3)): R
- Drug sensitivity ([14]; KP-2 (table of Example 3)): R
- Drug sensitivity [15]: R
- Drug sensitivity ([17]; AB-1 (Table 3)): R
- Drug sensitivity ([17]; AB-1 (table of Example 3)): R
- Drug sensitivity [18]: R
- Drug sensitivity [19]: R
